The structures appear in SMILES notation. pIC50: −log10 of the molar value. Numbered stars: 1 amine (or outer) side, 2 acyl side, 3 side chain; on linkers, the order of the positions; unused ones are H or OH. Bridge positions count the residues as written; N and C are the ends. Square brackets hold non-standard residues; d marks the D form. Peptide text beside a SMILES is read from it. * marks the point of attachment. Phe(3-CF3) = N[C@@H](Cc1cccc(C(F)(F)F)c1)C(=O)O; Ala(morpholin-4-yl) = N[C@@H](CN1CCOCC1)C(=O)O; Phe(4-COOH) = N[C@@H](Cc1ccc(C(=O)O)cc1)C(=O)O; Bip = N[C@@H](Cc1ccc(-c2ccccc2)cc1)C(=O)O; γGlu = O=C(O)[C@H](CCC(=O)[*:2])N[*:1]; βAsp = O=C(O)[C@H](CC(=O)[*:2])N[*:1]; NH(CH2)12COOH = O=C(O)CCCCCCCCCCCCN*; Val(3-OH) = CC(C)(O)[C@H](N)C(=O)O; Cha = N[C@@H](CC1CCCCC1)C(=O)O; Carboxymethyl = O=C(O)C*; Orn = NCCC[C@H](N)C(=O)O; Dab = NCC[C@H](N)C(=O)O; AEEA = NCCOCCOCC(=O)O

In the assay the target is T1, PD-1/PD-L1 interaction (PE-labeled human PD-L1-Ig binding to Jurkat cell line over-expressing human PD-1) (Homo sapiens, UniProt Q15116).
T1 construct: expressed in transfected cells; host or cells: Jurkat
T1 sequence (Q15116 25-288): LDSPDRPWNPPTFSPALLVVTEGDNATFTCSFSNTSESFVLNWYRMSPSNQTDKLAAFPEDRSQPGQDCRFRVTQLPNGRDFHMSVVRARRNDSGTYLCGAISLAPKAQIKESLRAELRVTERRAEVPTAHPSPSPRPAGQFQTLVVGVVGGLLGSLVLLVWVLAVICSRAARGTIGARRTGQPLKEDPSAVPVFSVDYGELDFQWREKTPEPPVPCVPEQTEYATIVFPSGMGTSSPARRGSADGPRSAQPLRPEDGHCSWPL
As to the kind of experiment: Jurkat-PD-1 Cell Binding High-Content Screening Assay (CBA). The conditions noted are these: Jurkat cell line over-expressing human PD-1; PE-labeled PD-L1-Ig 20 nM final; read-out: Jurkat hPD1-PDL1 IC50. In kind it is cell-based. In a few lines: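 Jurkat cells stably over-expressing human PD-1 were seeded in DMEM with 10% fetal calf serum and pre-incubated with compound for 2 h at 37° C. PE-labeled human PD-L1-Ig was then added at 20 nM final for 1 hour, after which cells were fixed with paraformaldehyde, Hoechst-stained and imaged by high-content microscopy.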
Turning to `COC[C@@H]1NC(=O)CSC[C@@H](C(=O)N[C@@H](CCN)C(=O)NCCOCCOCC(=O)N[C@@H](CCC(=O)NCCOCCOCC(=O)NCCCCCCCCCCCCC(=O)O)C(=O)O)NC(=O)[C@H](CO)NC(=O)[C@H](C(C)(C)O)NC(=O)[C@H](CC2CCCCC2)NC(=O)[C@H](CCN)NC(=O)[C@@H](CC(C)C)NC(=O)[C@H](CCCN)NC(=O)[C@H](Cc2ccc(C(=O)O)cc2)NC(=O)[C@H](Cc2ccc(-c3ccccc3)cc2)NC(=O)[C@H](Cc2ccc(C(=O)O)cc2)NC(=O)[C@H](Cc2cccc(C(F)(F)F)c2)NC(=O)[C@H](CC(=O)O)NC(=O)[C@H](Cc2ccc(OCC(=O)O)cc2)NC1=O` [Compound 2938] ({CH2CO}-S(Me)Y(Carboxymethyl)D[Phe(3-CF3)][Phe(4-COOH)][Bip][Phe(4-COOH)][Orn][dL][Dab][Cha][Val(3-OH)]SC[Dab][AEEA][γGlu][AEEA]-{NH(CH2)12COOH}; thioether N-14), the pIC50 is 7.57.
The same measure for `CC(C)C[C@H]1NC(=O)[C@H](CCCN)NC(=O)[C@H](Cc2ccc(C(=O)O)cc2)NC(=O)[C@H](Cc2ccc(-c3ccccc3)cc2)NC(=O)[C@H](Cc2ccc(C(=O)O)cc2)NC(=O)[C@H](Cc2cccc(C(F)(F)F)c2)NC(=O)[C@H](CC(=O)O)NC(=O)[C@H](Cc2ccc(OCC(=O)O)cc2)NC(=O)[C@H](CN2CCOCC2)NC(=O)CSC[C@@H](C(=O)N[C@@H](CCN)C(=O)NCCOCCOCC(=O)N[C@@H](CCC(=O)NCCOCCOCC(=O)NCCCCCCCCCCCCC(=O)O)C(=O)O)NC(=O)[C@H](CO)NC(=O)[C@H](C(C)(C)O)NC(=O)[C@H](CC2CCCCC2)NC(=O)[C@H](CCN)NC1=O` [Compound 2940] ({CH2CO}-[Ala(morpholin-4-yl)]Y(Carboxymethyl)D[Phe(3-CF3)][Phe(4-COOH)][Bip][Phe(4-COOH)][Orn][dL][Dab][Cha][Val(3-OH)]SC[Dab][AEEA][γGlu][AEEA]-{NH(CH2)12COOH}; thioether N-14): 7.84; for `CC(C)C[C@H]1NC(=O)[C@H](CCCN)NC(=O)[C@H](Cc2ccc(C(=O)O)cc2)NC(=O)[C@H](Cc2ccc(-c3ccccc3)cc2)NC(=O)[C@H](Cc2ccc(C(=O)O)cc2)NC(=O)[C@H](Cc2cccc(C(F)(F)F)c2)NC(=O)[C@H](CC(=O)O)NC(=O)[C@H](Cc2ccc(OCC(=O)O)cc2)NC(=O)[C@H](CN2CCOCC2)NC(=O)CSC[C@@H](C(=O)N[C@@H](CCN)C(=O)NCCOCCOCC(=O)N[C@@H](CC(=O)NCCOCCOCC(=O)NCCCCCCCCCCCCC(=O)O)C(=O)O)NC(=O)[C@H](CO)NC(=O)[C@H](C(C)(C)O)NC(=O)[C@H](CC2CCCCC2)NC(=O)[C@H](CCN)NC1=O` [Compound 2941] ({CH2CO}-[Ala(morpholin-4-yl)]Y(Carboxymethyl)D[Phe(3-CF3)][Phe(4-COOH)][Bip][Phe(4-COOH)][Orn][dL][Dab][Cha][Val(3-OH)]SC[Dab][AEEA][βAsp][AEEA]-{NH(CH2)12COOH}; thioether N-14): 7.56.
Regarding `CC(C)C[C@H]1NC(=O)[C@H](CCCN)NC(=O)[C@H](Cc2ccc(C(=O)O)cc2)NC(=O)[C@H](Cc2ccc(-c3ccccc3)cc2)NC(=O)[C@H](Cc2ccc(C(=O)O)cc2)NC(=O)[C@H](Cc2cccc(C(F)(F)F)c2)NC(=O)[C@H](CC(=O)O)NC(=O)[C@H](Cc2ccc(OCC(=O)O)cc2)NC(=O)[C@H](CCN)NC(=O)CSC[C@@H](C(=O)N[C@@H](CCN)C(=O)NCCOCCOCC(=O)N[C@@H](CC(=O)NCCOCCOCC(=O)NCCCCCCCCCCCCC(=O)O)C(=O)O)NC(=O)[C@H](CO)NC(=O)[C@H](C(C)(C)O)NC(=O)[C@H](CC2CCCCC2)NC(=O)[C@H](CCN)NC1=O` [Compound 2943] ({CH2CO}-[Dab]Y(Carboxymethyl)D[Phe(3-CF3)][Phe(4-COOH)][Bip][Phe(4-COOH)][Orn][dL][Dab][Cha][Val(3-OH)]SC[Dab][AEEA][βAsp][AEEA]-{NH(CH2)12COOH}; thioether N-14), the pIC50 was 7.12.

These data come from patent publication US20260022142A1, “MACROCYCLIC IMMUNOMODULATORS” (Bristol-Myers Squibb Company, priority 2022, published 2026).
